Experimental data as given in patent US7125868B2, “Thienothiazine compound having anti-inflammatory and analgesic properties and method of making and using the same” (priority 2001, dated 2006).

Experiments:
[1] = test system: Carrageenan Induced Rat Foot Swelling; experiment: Carrageenan induced rat foot swelling; assay type: in vivo
From the text: Divide the rats randomly into five groups, with each group consisting of ten rats. […] Use carrageenan induced inflammation to cause rat plantar swelling.

[2] = test system: Adjuvant Induced Rat Foot Swelling; experiment: Adjuvant induced rat foot swelling (primary and secondary inflammation); assay type: in vivo
[3] = test system: Dimethylbenzene Induced Mouse Ear Swelling; experiment: Dimethylbenzene induced mouse ear swelling
From the text: Divide the mice randomly into five groups, with each team consisting of ten mice. […] Dimethylbenzene was used to induce ear swelling of the mice.

Rat Gastric Mucosa Ulcer = experiment: Side effects of causing rat gastric mucosa ulcer; conditions: four successive days
[4] = test system: Body Twist Reaction Induced by Acetic Acid; experiment: Acetic acid induced body twist reaction (chemical stimuli induced pain); conditions: mouse

Cc1cnc(NC(=O)C2=C(O)c3sc(Cl)cc3S(=O)(=O)N2C)s1 [Example 1, 6-chlorine-4-hydroxy-2-methyl-N-[2′-(5′-methyl)thiazolyl]-2H-thieno-[2,3-e]-1,2-thiazine-3-formamide-1,1-dioxide]
Change in the Foot Volume after Giving the Carrageenan ([1]; 1.0 mg/kg, five hours): 0.83 ± 0.28 | Change in the Foot Volume after Giving the Carrageenan ([1]; 1.0 mg/kg, four hours): 0.76 ± 0.28 | Change in the Foot Volume after Giving the Carrageenan ([1]; 1.0 mg/kg, one hour): 0.25 ± 0.15 | Change in the Foot Volume after Giving the Carrageenan ([1]; 1.0 mg/kg, six hours): 0.83 ± 0.25 | Change in the Foot Volume after Giving the Carrageenan ([1]; 1.0 mg/kg, three hours): 0.66 ± 0.34 | Change in the Foot Volume after Giving the Carrageenan ([1]; 1.0 mg/kg, two hours): 0.56 ± 0.27 | Change in the Foot Volume after Giving the Carrageenan ([1]; 2.0 mg/kg, five hours): 0.79 ± 0.25 | Change in the Foot Volume after Giving the Carrageenan ([1]; 2.0 mg/kg, four hours): 0.70 ± 0.25 | Change in the Foot Volume after Giving the Carrageenan ([1]; 2.0 mg/kg, one hour): 0.24 ± 0.11 | Change in the Foot Volume after Giving the Carrageenan ([1]; 2.0 mg/kg, six hours): 0.80 ± 0.21 | Change in the Foot Volume after Giving the Carrageenan ([1]; 2.0 mg/kg, three hours): 0.63 ± 0.54 | Change in the Foot Volume after Giving the Carrageenan ([1]; 2.0 mg/kg, two hours): 0.39 ± 0.17 | Change in the Foot Volume after Giving the Carrageenan ([1]; 4.0 mg/kg, five hours): 0.60 ± 0.31 | Change in the Foot Volume after Giving the Carrageenan ([1]; 4.0 mg/kg, four hours): 0.59 ± 0.30 | Change in the Foot Volume after Giving the Carrageenan ([1]; 4.0 mg/kg, one hour): 0.29 ± 0.20 | Change in the Foot Volume after Giving the Carrageenan ([1]; 4.0 mg/kg, six hours): 0.64 ± 0.24 | Change in the Foot Volume after Giving the Carrageenan ([1]; 4.0 mg/kg, three hours): 0.50 ± 0.20 | Change in the Foot Volume after Giving the Carrageenan ([1]; 4.0 mg/kg, two hours): 0.37 ± 0.22 | effectiveness on carrageenan induced plantar swelling compared with Meloxicam ([1]; 1, 2, 4 mg/kg vs Meloxicam 4 mg/kg): substantially more effective than the positive medicine Meloxicam | Rate of the Change in the Volume of Left and Right Feet after Giving Adjuvant ([2]; 1.0 mg/kg oral, 18 hours): 0.77 ± 0.28 | Rate of the Change in the Volume of Left and Right Feet after Giving Adjuvant ([2]; 1.0 mg/kg oral, 24 hours): 0.75 ± 0.24 | Rate of the Change in the Volume of Left and Right Feet after Giving Adjuvant ([2]; 1.0 mg/kg oral, 3 days): 0.74 ± 0.28 | Rate of the Change in the Volume of Left and Right Feet after Giving Adjuvant ([2]; 1.0 mg/kg oral, 8 days): 0.75 ± 0.29 | Rate of the Change in the Volume of Left and Right Feet after Giving Adjuvant ([2]; 1.0 mg/kg oral, 19 days): 0.97 ± 0.19 | Rate of the Change in the Volume of Left and Right Feet after Giving Adjuvant ([2]; 2.0 mg/kg oral, 18 hours): 0.62 ± 0.10 | Rate of the Change in the Volume of Left and Right Feet after Giving Adjuvant ([2]; 2.0 mg/kg oral, 24 hours): 0.60 ± 0.10 | Rate of the Change in the Volume of Left and Right Feet after Giving Adjuvant ([2]; 2.0 mg/kg oral, 3 days): 0.61 ± 0.13 | Rate of the Change in the Volume of Left and Right Feet after Giving Adjuvant ([2]; 2.0 mg/kg oral, 8 days): 0.60 ± 0.14 | Rate of the Change in the Volume of Left and Right Feet after Giving Adjuvant ([2]; 2.0 mg/kg oral, 19 days): 0.69 ± 1.10 | Rate of the Change in the Volume of Left and Right Feet after Giving Adjuvant ([2]; 4.0 mg/kg oral, 18 hours): 0.65 ± 0.08 | Rate of the Change in the Volume of Left and Right Feet after Giving Adjuvant ([2]; 4.0 mg/kg oral, 24 hours): 0.65 ± 0.12 | Rate of the Change in the Volume of Left and Right Feet after Giving Adjuvant ([2]; 4.0 mg/kg oral, 3 days): 0.53 ± 0.13 | Rate of the Change in the Volume of Left and Right Feet after Giving Adjuvant ([2]; 4.0 mg/kg oral, 8 days): 0.63 ± 0.16 | Rate of the Change in the Volume of Left and Right Feet after Giving Adjuvant ([2]; 4.0 mg/kg oral, 19 days): 0.72 ± 1.12 | inhibition of the primary and secondary inflammation induced by adjuvant ([2]; 1, 2, 4 mg/kg oral): dosage dependent inhibition | Rate of Ear Swelling (x ± s) ([3]; 2 mg/kg oral): 0.56 ± 0.35 | inhibition rate (ear swelling) ([3]; 2 mg/kg oral): 56% | Rate of Ear Swelling (x ± s) ([3]; 4 mg/kg oral): 0.67 ± 0.43 | inhibition rate (ear swelling) ([3]; 4 mg/kg oral): 67% | Rate of Ear Swelling (x ± s) ([3]; 8 mg/kg oral): 0.81 ± 0.26 | inhibition rate (ear swelling) ([3]; 8 mg/kg oral): 81% | Ulcer Occurring Rate (Rat Gastric Mucosa Ulcer; 1 mg/kg oral): 0% | Ulcer Occurring Rate (Rat Gastric Mucosa Ulcer; 2 mg/kg oral): 30% | Ulcer Occurring Rate (Rat Gastric Mucosa Ulcer; 4 mg/kg oral): 80% | Numbers of Occurrence of Body Twist (x ± s) ([4]; 2.0 mg/kg oral): 14.78 ± 6.38 | Percentage of Body Twist ([4]; 2.0 mg/kg oral): 90% | Numbers of Occurrence of Body Twist (x ± s) ([4]; 4.0 mg/kg oral): 10.78 ± 8.15 | Percentage of Body Twist ([4]; 4.0 mg/kg oral): 80% | Numbers of Occurrence of Body Twist (x ± s) ([4]; 8.0 mg/kg oral): 2.78 ± 3.49 | Percentage of Body Twist ([4]; 8.0 mg/kg oral): 60%

Cc1cnc(NC(=O)C2=C(O)c3ccccc3S(=O)(=O)N2C)s1 [Meloxicam, reference compound]
Rate of Ear Swelling (x ± s) ([3]; 8 mg/kg oral): 0.43 ± 0.36 | inhibition rate (ear swelling) ([3]; 8 mg/kg oral): 43% | Numbers of Occurrence of Body Twist (x ± s) ([4]; 8.0 mg/kg oral): 18.11 ± 14.37 | Percentage of Body Twist ([4]; 8.0 mg/kg oral): 100%
